Source: ChEMBL document CHEMBL3885881, “DrugMatrix”

Organism: Rattus norvegicus
Experiment: DrugMatrix - Regimen: Daily Repeat
Type: toxicity, organism-based, Sprague-Dawley
Set-up: regimen Daily Repeat, gender Male, age 6-8 weeks
Details: in vivo, po, route oral GAVAGE, vehicle .5 % CMC; for ABSOLUTE BASOPHIL / ABSOLUTE EOSINOPHIL / ABSOLUTE LYMPHOCYTE / ABSOLUTE MONOCYTE / ABSOLUTE SEGMENTED NEUTROPHIL / BASOPHIL / EOSINOPHIL / ERYTHROCYTE COUNT / HEMATOCRIT / HEMOGLOBIN / LEUKOCYTE COUNT / LYMPHOCYTE / MEAN CORPUSCULAR HEMOGLOBIN / MEAN CORPUSCULAR HEMOGLOBIN CONCENTRATION / MEAN CORPUSCULAR VOLUME / MONOCYTE / NEUTROPHIL / NUCLEATED RED BLOOD CELLS / PLATELET COUNT: tissue Blood; for ALANINE AMINOTRANSFERASE / ALBUMIN / ALKALINE PHOSPHATASE / ASPARTATE AMINOTRANSFERASE / BLOOD UREA NITROGEN / CARBON DIOXIDE / CHLORIDE / CHOLESTEROL / CREATINE PHOSPHOKINASE / CREATININE / GLUCOSE / LACTATE DEHYDROGENASE / LIPASE / PHOSPHORUS / POTASSIUM / SODIUM / TOTAL BILIRUBIN / TOTAL PROTEIN / URIC ACID: tissue Plasma
[1] = 10 mg/kg, 72 h, dose level Low, time 3 day
[2] = 10 mg/kg, 120 h, dose level Low, time 5 day
[3] = 2000 mg/kg, 72 h, dose level High, time 3 day
[4] = 2000 mg/kg, 120 h, dose level High, time 5 day

CC(=O)O[C@]1(C(C)=O)CC[C@H]2[C@@H]3C=C(Cl)C4=CC(=O)CC[C@]4(C)[C@H]3CC[C@@]21C [CHLORMADINONE ACETATE]
ABSOLUTE BASOPHIL [1]: 0 CELLS/uL
ABSOLUTE EOSINOPHIL [1]: 58.33 CELLS/uL
ABSOLUTE LYMPHOCYTE [1]: 11175 CELLS/uL
ABSOLUTE MONOCYTE [1]: 59.67 CELLS/uL
ABSOLUTE SEGMENTED NEUTROPHIL [1]: 507 CELLS/uL
BASOPHIL [1]: 0%
EOSINOPHIL [1]: 0.33%
ERYTHROCYTE COUNT [1]: 5.63 x10E6/uL
HEMATOCRIT [1]: 35.5%
HEMOGLOBIN [1]: 14.3 G/DL
LEUKOCYTE COUNT [1]: 11.8 x10E3/uL
LYMPHOCYTE [1]: 94.67%
MEAN CORPUSCULAR HEMOGLOBIN [1]: 25.37 pg
MEAN CORPUSCULAR HEMOGLOBIN CONCENTRATION [1]: 40.27 G/DL
MEAN CORPUSCULAR VOLUME [1]: 63 fL
MONOCYTE [1]: 0.67%
NEUTROPHIL [1]: 4.33%
NUCLEATED RED BLOOD CELLS [1]: 0 /100WBC
PLATELET COUNT [1]: 925.33 x10E3/uL
ALANINE AMINOTRANSFERASE [1]: 52 u/L
ALBUMIN [1]: 4.5 G/DL
ALKALINE PHOSPHATASE [1]: 475 u/L
ASPARTATE AMINOTRANSFERASE [1]: 70.67 u/L
BLOOD UREA NITROGEN [1]: 17.67 mg/dL
CARBON DIOXIDE [1]: 33 mmol/L
CHLORIDE [1]: 101 MEQ/L
CHOLESTEROL [1]: 81.67 mg/dL
CREATINE PHOSPHOKINASE [1]: 138.33 u/L
CREATININE [1]: 0.17 mg/dL
GLUCOSE [1]: 135.67 mg/dL
LACTATE DEHYDROGENASE [1]: 134.67 u/L
LIPASE [1]: 12 u/L
PHOSPHORUS [1]: 11.17 mg/dL
POTASSIUM [1]: 6.06 MEQ/L
SODIUM [1]: 149.35 MEQ/L
TOTAL BILIRUBIN [1]: 0.3 mg/dL
TOTAL PROTEIN [1]: 6.37 G/DL
URIC ACID [1]: 0.67 mg/dL
ABSOLUTE BASOPHIL [2]: 0 CELLS/uL
ABSOLUTE EOSINOPHIL [2]: 0 CELLS/uL
ABSOLUTE LYMPHOCYTE [2]: 14416.33 CELLS/uL
ABSOLUTE MONOCYTE [2]: 46.33 CELLS/uL
ABSOLUTE SEGMENTED NEUTROPHIL [2]: 1304 CELLS/uL
BASOPHIL [2]: 0%
EOSINOPHIL [2]: 0%
ERYTHROCYTE COUNT [2]: 6.23 x10E6/uL
HEMATOCRIT [2]: 37.17%
HEMOGLOBIN [2]: 14.57 G/DL
LEUKOCYTE COUNT [2]: 15.77 x10E3/uL
LYMPHOCYTE [2]: 91.67%
MEAN CORPUSCULAR HEMOGLOBIN [2]: 23.47 pg
MEAN CORPUSCULAR HEMOGLOBIN CONCENTRATION [2]: 39.23 G/DL
MEAN CORPUSCULAR VOLUME [2]: 59.77 fL
MONOCYTE [2]: 0.33%
NEUTROPHIL [2]: 8%
NUCLEATED RED BLOOD CELLS [2]: 0 /100WBC
PLATELET COUNT [2]: 1116.33 x10E3/uL
ALANINE AMINOTRANSFERASE [2]: 54.33 u/L
ALBUMIN [2]: 4.47 G/DL
ALKALINE PHOSPHATASE [2]: 380.67 u/L
ASPARTATE AMINOTRANSFERASE [2]: 92.67 u/L
BLOOD UREA NITROGEN [2]: 14 mg/dL
CARBON DIOXIDE [2]: 25.67 mmol/L
CHLORIDE [2]: 102.33 MEQ/L
CHOLESTEROL [2]: 79.67 mg/dL
CREATINE PHOSPHOKINASE [2]: 290.67 u/L
CREATININE [2]: 0.13 mg/dL
GLUCOSE [2]: 156.67 mg/dL
LACTATE DEHYDROGENASE [2]: 269 u/L
LIPASE [2]: 9.67 u/L
PHOSPHORUS [2]: 12.67 mg/dL
POTASSIUM [2]: 7.15 MEQ/L
SODIUM [2]: 146.13 MEQ/L
TOTAL BILIRUBIN [2]: 0.2 mg/dL
TOTAL PROTEIN [2]: 6.27 G/DL
URIC ACID [2]: 1.77 mg/dL
ABSOLUTE BASOPHIL [3]: 0 CELLS/uL
ABSOLUTE EOSINOPHIL [3]: 87.33 CELLS/uL
ABSOLUTE LYMPHOCYTE [3]: 10368.67 CELLS/uL
ABSOLUTE MONOCYTE [3]: 145 CELLS/uL
ABSOLUTE SEGMENTED NEUTROPHIL [3]: 665.67 CELLS/uL
BASOPHIL [3]: 0%
EOSINOPHIL [3]: 0.67%
ERYTHROCYTE COUNT [3]: 5.63 x10E6/uL
HEMATOCRIT [3]: 36.4%
HEMOGLOBIN [3]: 14.6 G/DL
LEUKOCYTE COUNT [3]: 11.27 x10E3/uL
LYMPHOCYTE [3]: 90.67%
MEAN CORPUSCULAR HEMOGLOBIN [3]: 25.93 pg
MEAN CORPUSCULAR HEMOGLOBIN CONCENTRATION [3]: 40.1 G/DL
MEAN CORPUSCULAR VOLUME [3]: 64.67 fL
MONOCYTE [3]: 1.33%
NEUTROPHIL [3]: 7.33%
NUCLEATED RED BLOOD CELLS [3]: 0 /100WBC
PLATELET COUNT [3]: 1192 x10E3/uL
ALANINE AMINOTRANSFERASE [3]: 57 u/L
ALBUMIN [3]: 4.57 G/DL
ALKALINE PHOSPHATASE [3]: 388.67 u/L
ASPARTATE AMINOTRANSFERASE [3]: 82 u/L
BLOOD UREA NITROGEN [3]: 16.33 mg/dL
CARBON DIOXIDE [3]: 29 mmol/L
CHLORIDE [3]: 99 MEQ/L
CHOLESTEROL [3]: 79.67 mg/dL
CREATINE PHOSPHOKINASE [3]: 341.33 u/L
CREATININE [3]: 0.18 mg/dL
GLUCOSE [3]: 149.33 mg/dL
LACTATE DEHYDROGENASE [3]: 132.67 u/L
LIPASE [3]: 10 u/L
PHOSPHORUS [3]: 12.23 mg/dL
POTASSIUM [3]: 6.81 MEQ/L
SODIUM [3]: 144.97 MEQ/L
TOTAL BILIRUBIN [3]: 0.17 mg/dL
TOTAL PROTEIN [3]: 6.6 G/DL
URIC ACID [3]: 1.8 mg/dL
ABSOLUTE BASOPHIL [4]: 0 CELLS/uL
ABSOLUTE EOSINOPHIL [4]: 0 CELLS/uL
ABSOLUTE LYMPHOCYTE [4]: 10781.67 CELLS/uL
ABSOLUTE MONOCYTE [4]: 45 CELLS/uL
ABSOLUTE SEGMENTED NEUTROPHIL [4]: 840 CELLS/uL
BASOPHIL [4]: 0%
EOSINOPHIL [4]: 0%
ERYTHROCYTE COUNT [4]: 6.06 x10E6/uL
HEMATOCRIT [4]: 36.83%
HEMOGLOBIN [4]: 14.67 G/DL
LEUKOCYTE COUNT [4]: 11.67 x10E3/uL
LYMPHOCYTE [4]: 92%
MEAN CORPUSCULAR HEMOGLOBIN [4]: 24.23 pg
MEAN CORPUSCULAR HEMOGLOBIN CONCENTRATION [4]: 39.8 G/DL
MEAN CORPUSCULAR VOLUME [4]: 60.87 fL
MONOCYTE [4]: 0.33%
NEUTROPHIL [4]: 7.67%
NUCLEATED RED BLOOD CELLS [4]: 0.33 /100WBC
PLATELET COUNT [4]: 996.33 x10E3/uL
ALANINE AMINOTRANSFERASE [4]: 60.33 u/L
ALBUMIN [4]: 4.3 G/DL
ALKALINE PHOSPHATASE [4]: 310.33 u/L
ASPARTATE AMINOTRANSFERASE [4]: 77.67 u/L
BLOOD UREA NITROGEN [4]: 17.67 mg/dL
CARBON DIOXIDE [4]: 24.67 mmol/L
CHLORIDE [4]: 102.33 MEQ/L
CHOLESTEROL [4]: 67.33 mg/dL
CREATINE PHOSPHOKINASE [4]: 145.33 u/L
CREATININE [4]: 0.2 mg/dL
GLUCOSE [4]: 139 mg/dL
LACTATE DEHYDROGENASE [4]: 117.33 u/L
LIPASE [4]: 9.67 u/L
PHOSPHORUS [4]: 12.2 mg/dL
POTASSIUM [4]: 7.04 MEQ/L
SODIUM [4]: 143.63 MEQ/L
TOTAL BILIRUBIN [4]: 0.2 mg/dL
TOTAL PROTEIN [4]: 6.37 G/DL
URIC ACID [4]: 1.4 mg/dL
